Data from patent publication US8912219B2, “Aryl sulfamide and sulfamate derivatives as RORc modulators” (Genentech, Inc., priority 2013, dated 2014).

Molecular target: RORc ligand binding domain (Homo sapiens (Human), UniProt P51449)
Sequence (P51449 269-508): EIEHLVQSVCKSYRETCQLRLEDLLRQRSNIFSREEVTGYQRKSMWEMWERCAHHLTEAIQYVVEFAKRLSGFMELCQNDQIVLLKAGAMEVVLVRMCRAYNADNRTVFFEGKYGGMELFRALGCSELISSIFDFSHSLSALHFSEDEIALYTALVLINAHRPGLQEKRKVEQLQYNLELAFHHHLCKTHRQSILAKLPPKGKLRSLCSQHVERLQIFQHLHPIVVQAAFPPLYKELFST

CC(=O)N1CCN(c2ccc(CN(C3CCC3)S(=O)(=O)N(C)c3ccccc3)c(F)c2)CC1 [Compound 2, 1-(4-(4-acetylpiperazin-1-yl)-2-fluorobenzyl)-1-cyclobutyl-3-methyl-3-phenyl-sulfonamide]
IC50: 28 nM

CS(=O)(=O)N1CCC(Oc2ccc(N3CCN(Cc4ccc(F)cc4)S3(=O)=O)cc2)CC1 [Compound 3, 2-(4-fluorobenzyl)-5-(4-((1-(methylsulfonyl)piperidin-4-yl)oxy)phenyl)-1,2,5-thiadiazolidine 1,1-dioxide]
IC50: 6420 nM

CC(C)CN(Cc1ccc(F)cc1)S(=O)(=O)Nc1ccc(OC2CCN(S(C)(=O)=O)CC2)cc1 [Compound 4, 1-(4-fluorobenzyl)-1-isobutyl-3-(4-((1-(methylsulfonyl)piperidin-4-yl)oxy)phenyl)-sulfamide]
IC50: 230 nM

CC(=O)N1CCN(c2ccc(CN(C3CCC3)S(=O)(=O)Oc3ccccc3)c(F)c2)CC1 [Compound 10, phenyl 4-(4-acetylpiperazin-1-yl)-2-fluorobenzyl(cyclobutyl)sulfamate]
IC50: 7 nM
